Earlier results on 64 molecules are cited in the CATMoS acute toxicity set (Mansouri et al. 2021).

Values joined by “and” are separate entries in the source; they are usually repeats but may differ in a detail not shown here. Equal values may be shown once.

This data set is described as follows: rat acute oral toxicity. To be noted: in vivo.
As a reminder, the LD50 is the dose at which mortality reaches 50%. As for `CC(C)Oc1ccccc1[N+](=O)[O-]`, the LD50 was 2500 mg/kg.
On to `C[C@H]1CCCCN1N=O`, for which the LD50 is 600 mg/kg.
Regarding `CC(=O)c1ccc(N)cc1`, the LD50 is 381 mg/kg.
`NC(=S)C1CC=CCC1` (centres undefined): the LD50 was 50 mg/kg.
With `CN1CCC(OC(=O)C2CCc3cc(C4CCCCC4)ccc32)CC1` (centres undefined), the 50% lethal dose (LD50) was 572 mg/kg.
`CCCN(COC(C)=O)N=O`: the LD50 was 1000 mg/kg.
With `CCc1ncc(C)nc1C`, the LD50 is 456 mg/kg.
Turning to `c1ccc(C(OCCN2CCOCC2)c2ccccc2)cc1`, the LD50 was 916 mg/kg.
For `O=S(=O)(SC(Cl)(Cl)Cl)C(Cl)Cl`, the LD50 was 3620 mg/kg.
For `O=C1C=CC(=O)N1c1ccccc1Cl`, the LD50 was 520 mg/kg.
Take `CN(C)c1ccc(O)cc1`: the LD50 was 689 mg/kg.
`Brc1nc(Br)c(Br)[nH]1`: the LD50 was 34 mg/kg.
As to `O=C(O)C(Cl)Cl`, the LD50 was 5280 mg/kg and 2820 mg/kg.
Consider `CC(c1ccccc1)N(C)C` (centres undefined), for which the LD50 is 420 mg/kg.
`C1CCC(C(CC2CCCCN2)C2CCCCC2)CC1` (centres undefined): the LD50 is 2150 mg/kg.
As for `CC1N=C(N)CC1c1ccccc1` (centres undefined), the LD50 was 420 mg/kg.
Turning to `CCCOC(=O)C1c2cc3c(cc2CC(C)C1C(=O)OCCC)OCO3` (centres undefined), the LD50 was 1500 mg/kg.
Turning to `C1CN2CCC1CC2`, the LD50 is 81.2 mg/kg.
As for `CN1COCN(Cc2cnc(Cl)s2)C1=N[N+](=O)[O-]`, the LD50 is 1560 mg/kg.
On to `CCOP(=S)(OCC)SCn1nc(Br)ccc1=O`, for which the LD50 was 30 mg/kg.
`O=S(=O)(c1ccccc1)c1ccccc1`: the median lethal dose (LD50) is 300 mg/kg.
With `N=C(N)NCCN1CCCCCCC1`, the LD50 is 1050 mg/kg.
As for `COP(=O)(OC)OC(Br)C(Br)(Br)Br` (centres undefined), the LD50 was 184 mg/kg.
`CC(=O)OC1CC2CCC3C(CCC4(C)C3CC(OC(C)=O)C4[N+]3(C)CCCCC3)C2(C)CC1[N+]1(C)CCCCC1` (centres undefined): the LD50 was 202 mg/kg.
On to `CN(N=O)c1cccnc1`, for which the LD50 is 10 mg/kg.
Take `CCCP(=O)(CCC)CCC`: the median lethal dose (LD50) was 1410 mg/kg.
For `CC(C)CNC(=S)NCC(C)C`, the LD50 was 800 mg/kg.
On to `CCN(CC)CCNC(=O)c1ccc(NS(C)(=O)=O)cc1`, for which the LD50 is 3200 mg/kg.
For `CCCCC[Si](OCC)(OCC)OCC`, the LD50 is 20000 mg/kg.
Consider `Cc1ccc(C(=O)c2cccc3c2CCC3C(=O)O)cc1` (centres undefined), for which the LD50 was 244 mg/kg.
As for `c1ccc2c(c1)Cc1ccccc1N2`, the 50% lethal dose (LD50) was 2140 mg/kg.
As to `NC1=NCC2c3ccccc3Cc3ccccc3N12` (centres undefined), the LD50 is 192 mg/kg.
On to `CCOC(=S)C=Cc1ccc([N+](=O)[O-])cc1`, for which the LD50 is 970 mg/kg.
In the case of `CCCCCCCCC=CCCCCCCCC(=O)OCC1CO1` (centres undefined), the LD50 was 3520 mg/kg.
With `COc1cc(NC(=O)C(N=Nc2ccc(-c3ccc(N=NC(C(C)=O)C(=O)Nc4ccc(C)cc4C)c(Cl)c3)cc2Cl)C(C)=O)c(OC)cc1Cl` (centres undefined), the LD50 is 2230 mg/kg.
Regarding `CCCc1c(OCc2cccn3c(=O)c(CCC(=O)O)cnc23)ccc(C(C)=O)c1O`, the LD50 is 4000 mg/kg.
For `CNC(=O)Nc1nc2ccccc2s1`, the LD50 was 1280 mg/kg.
Regarding `CC(=O)Nc1ccncc1`, the LD50 is 446 mg/kg.
Take `O=C1CSc2ncccc2N1`: the LD50 was 1050 mg/kg.
For the molecule `CN1CCN(C(=O)OC2c3nccnc3C(=O)N2c2ccc(Cl)cn2)CC1` (centres undefined), the LD50 is 827 mg/kg.
In the case of `N#Cc1cccnc1`, the LD50 was 1180 mg/kg.
In the case of `CN(C)c1c(Cl)c(Cl)c(Cl)c2nc(C(F)(F)F)[nH]c12`, the LD50 is 22 mg/kg.
As for `O=C(Cl)c1ccc(Oc2ccc(C(=O)Cl)cc2)cc1`, the LD50 was 8700 mg/kg.
Consider `Cc1cc(-c2ccccc2)n[nH]1`, for which the LD50 was 1800 mg/kg.
Consider `CO[Si](OC)(OC)c1ccccc1`, for which the LD50 is 1050 mg/kg.
For `O=C(Nc1ccc(O)cc1)c1ccccc1O`, the LD50 is 6700 mg/kg.
As for `CS(=O)(=O)c1ccc(N)c(Cl)c1`, the 50% lethal dose (LD50) was 9500 mg/kg.
Regarding `N#CC1CC=CCC1` (centres undefined), the LD50 was 460 mg/kg.
Consider `CS(=O)(=O)N(Cc1cccnc1)c1ccc(F)cc1F`, for which the LD50 was 1060 mg/kg.
`CC(Br)(CCl)CBr` (centres undefined): the LD50 is 780 mg/kg.
`C=C1CC(C)C2C3Cc4ccc(O)cc4C2(CCN3CC2CCC2)C1` (centres undefined): the LD50 is 750 mg/kg.
`Cc1ccccc1-n1c(CF)nc2ccc(N)cc2c1=O`: the 50% lethal dose (LD50) is 249 mg/kg.
As to `Nc1ccc(C(F)(F)F)c(NC(=O)c2cccnc2)c1`, the LD50 is 800 mg/kg.
Regarding `Nc1cc(Cl)ccc1Cl`, the LD50 was 1600 mg/kg.
Take `O=C1CN2CCOC2(c2ccccc2Cl)c2cc(Cl)ccc2N1` (centres undefined): the LD50 is 1780 mg/kg.
On to `Cc1nc(C(C)C)c(=O)[nH]c1C`, for which the LD50 is 903 mg/kg.
For the molecule `CN(C)C(=O)c1sc(-c2cccnc2)nc1-c1ccccc1`, the LD50 was 1040 mg/kg.
Consider `C/C=C/Cl`, for which the LD50 was 1950 mg/kg.
Take `C=CC[N+]1(CCC(C)CCCC(C)C)CCCCC1` (centres undefined): the LD50 was 360 mg/kg.
`CCCCCCNC(=O)n1cc(F)c(=O)[nH]c1=O`: the LD50 is 268 mg/kg.
Regarding `C=C(Cl)C(=O)OC`, the LD50 was 68 mg/kg.
Regarding `Nc1cccc(N(CCO)CCO)c1`, the LD50 was 246 mg/kg.
Regarding `CCCCCCCCCCCC[N+](C)(C)CC(O)CCl` (centres undefined), the LD50 is 1070 mg/kg.
Regarding `CC(CN1c2ccccc2Sc2ccc(S(=O)(=O)N(C)C)cc21)N(C)C` (centres undefined), the LD50 is 1320 mg/kg.
